# How the values were obtained:
# [1] = Thermogravimetric analysis (TGA); format: physicochemical; conditions: heating rate of 10° C. from ambient to 220° C., nitrogen purge
# Protocol: Thermogravimetric analysis (TGA) measurements were performed using a TA Instruments Model Q-50 module equipped with high resolution capability. Data were collected using TA Instruments Thermal Analyst controller and analyzed using TA Instruments Universal Analysis software. A weighed sample was placed onto a platinum pan and scanned with a heating rate of 10° C. from ambient temperature to 220° C. The balance and furnace chambers were purged with nitrogen flow during use.
# [2] = Dynamic moisture sorption (DMS) assessment; format: physicochemical
# Protocol: Dynamic moisture sorption (DMS) measurements were performed using a VTI atmospheric microbalance, SGA-100 system (VTI Corp., Hialeah, Fla. 33016). A weighed sample was used and the relative humidity (RH) was set at the ambient value at the start of the analysis. The sample was subjected to an initial drying step (from 45% RH to 5% RH) followed by two cycles of adsorption (5% RH to 90% RH) and desorption (90% RH to 5% RH) experiments. The DMS analysis used a scan rate of 5% RH/step over the full humidity range of 5% (RH) to 90% RH. The DMS run was performed isothermally at 25° C.
compound,measurement,setting,value
"Cc1oc(=O)oc1COC(=O)[C@](C)(CO)C[C@@H](Cc1ccc(-c2ccccc2)cc1)NC(=O)c1c[nH]nn1 [crystalline compound, (2S,4R)-5-biphenyl-4-yl-2-hydroxymethyl-2-methyl-4-[(1H-[1,2,3]triazole-4-carbonyl)-amino]-pentanoic acid 5-methyl-2-oxo-[1,3]dioxol-4-ylmethyl ester]",temperature until which the TGA trace shows no weight loss,[1],about 200 °C
same,hygroscopicity (DMS profile),"[2]; 5% RH to 90% RH, two adsorption/desorption cycles, 25° C.",non-hygroscopic
same,moisture picked up during the adsorption segment,"[2]; adsorption from 5% RH to 90% RH, isothermal at 25° C.",less than 0.1 % by weight
same,solid form after the DMS experiment (PXRD of post-DMS sample),[2]; after two moisture sorption-desorption cycles,no change in the form
